Measurements from the supplement of paper PMC10702517.
± gives the standard deviation.

What was measured:
[1] = chemical recovery by SPE of plasma after PDMS sampling; higher = better extraction; conditions: pooled human plasma, extraction method: HLB SPE of plasma after PES
[2] = chemical recovery from spiked human plasma; higher = better extraction; conditions: pooled human plasma
[3] = chemical recovery into PDMS from spiked human plasma; higher = better extraction; conditions: pooled human plasma, extraction method: PES with PDMS
[4] = extraction method: SPE only (HLB 96-well), PES comparison experiment
[5] = extraction method: solvent precipitation (ACN + hexane)
[6] = extraction method: PES+SPE (3 d PDMS equilibration then HLB SPE)
[7] = extraction method: SPE only (HLB 96-well)
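For chemical recovery by SPE of plasma after PDMS sampling in this document: over 400 spiked chemicals quantified by LC-HRMS or GC-HRMS via internal standard calibration, recovery relative to spike mix added to unspiked plasma extract to correct matrix effects.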

| Structure (SMILES) | chemical recovery by SPE of plasma ([1]; equilibration time (d): 1) [%] | chemical recovery [2, 4] [%] | chemical recovery into PDMS ([3]; equilibration time (d): 1) [%] | chemical recovery into PDMS ([3]; equilibration time (d): 3) [%] | chemical recovery into PDMS ([3]; equilibration time (d): 6) [%] | chemical recovery by SPE of plasma ([1]; equilibration time (d): 3) [%] | chemical recovery by SPE of plasma ([1]; equilibration time (d): 6) [%] | chemical recovery [2, 5] [%] | chemical recovery [2, 6] [%] | chemical recovery [2, 7] [%] |
| --- | --- | --- | --- | --- | --- | --- | --- | --- | --- | --- |
| CCCN(CCOc1c(Cl)cc(Cl)cc1Cl)C(=O)NC=O | 3.65 ± 3.2 | 43.4 ± 6.2 | 39.6 ± 3.2 | 42.2 ± 4.2 | 43.2 ± 2.2 | 2.44 ± 2.1 | 0.703 ± 1.2 |  |  |  |
| Fc1ccc([C@]2(Cn3cncn3)O[C@H]2c2ccccc2Cl)cc1 (racemic) [Epoxiconazole] | 0.968 ± 0.044 | 47.4 ± 6.8 | 43.7 ± 1.7 | 48.1 ± 4.1 | 46.5 ± 5.9 | 0.628 ± 0.21 | 0.285 ± 0.018 | 73.6 ± 3 |  |  |
| Nc1ccccc1Br [2-Bromoaniline] | 0.45 ± 0.78 |  | 6.56 ± 0.99 | 9.84 ± 3 | 5.91 ± 1.3 | 1.14 ± 0.62 | 0.431 ± 0.75 |  |  |  |
| ClC=C(c1ccc(Cl)cc1)c1ccc(Cl)cc1 [4,4-DDMU] | 11.4 ± 8 |  |  | 67.8 ± 4.7 | 62.3 ± 4.6 | 12 ± 2.1 | 11.5 ± 4.2 |  |  |  |
| C[C@]12CCC(=O)C=C1CC[C@@H]1[C@@H]2CC[C@@]2(C)[C@H]1CC[C@]2(C)O [17alpha-Methyltestosterone] | 7.99 ± 6.9 |  | 34.6 ± 2.1 | 36.4 ± 2.9 | 37.6 ± 0.76 | 12.4 ± 1.8 | 7.08 ± 1.2 |  |  |  |
| N#CSCSc1nc2ccccc2s1 [(Benzothiazol-2-ylthio)methyl thiocyanate] |  | 33.5 ± 7.2 | 24.8 ± 3.2 | 11 ± 4 | 13.3 ± 4.5 |  |  |  |  |  |
| c1ccc2cc3ccccc3cc2c1 [Anthracene] |  | 17.7 ± 2.9 | 70 ± 4.1 | 79.7 ± 8.8 | 80.6 ± 8 |  |  |  |  |  |
| c1ccc2cc3c(cc2c1)-c1cccc2cccc-3c12 [Benzo(k)fluoranthene] |  |  |  | 92.5 ± 5.6 | 93.8 ± 18 |  |  | 50.7 ± 1.6 |  | 1.23 ± 0.43 |
| CCCCCCCCCCCCCC[N+](C)(C)Cc1ccccc1 [Benzyldimethyltetradecylammonium] |  |  |  |  | 0.508 ± 1 |  |  |  |  | 66.8 ± 24 |
| O=S(=O)(c1ccc(Cl)cc1)c1ccc(Cl)cc1 [Bis(4-chlorophenyl)sulfone] |  |  | 41.4 ± 2.9 |  | 39.6 ± 14 |  |  |  |  | 4.65 ± 1.5 |
| CC(=O)c1cc(C(C)(C)C)cc2c1CCC2(C)C [Celestolide] |  |  | 33.2 ± 0.97 | 37.6 ± 3.8 | 34.7 ± 3.6 |  |  | 76.6 ± 27 |  | 1.5 ± 0.73 |
| O=P1(N(CCCl)CCCl)NCCCO1 (configuration not stated) [Cyclophosphamide] |  | 55 ± 4.7 | 1.55 ± 2.7 | 2.5 ± 4.3 | 6.21 ± 5.4 |  |  | 70.9 ± 3.3 | 49.6 ± 4.1 | 41 ± 4 |
| CC(C1CC1)C(O)(Cn1cncn1)c1ccc(Cl)cc1 (configuration not stated) [Cyproconazole] | 2.91 ± 0.36 |  | 37.7 ± 1.8 | 41.6 ± 3.6 | 41 ± 0.84 | 2.32 ± 0.46 | 1.25 ± 0.088 |  |  |  |
| CCCCOP(=O)(O)OCCCC [Di-n-butyl phosphate] |  |  | 25.9 ± 1.5 | 31.1 ± 3.2 | 30.9 ± 1.4 |  |  | 67.8 ± 3.6 | 42.2 ± 5 | 33.5 ± 3.3 |
| CCOP(=S)(OCC)SCSP(=S)(OCC)OCC [Ethion] |  | 31.7 ± 5.8 | 48.1 ± 8.9 | 47.4 ± 4.3 | 46.7 ± 1.1 |  |  |  |  | 37.2 ± 9.9 |
| CCOC(=O)NCCOc1ccc(Oc2ccccc2)cc1 [Fenoxycarb] |  |  | 52.1 ± 2.8 | 54.3 ± 4.4 | 52.2 ± 7.9 |  |  | 72 ± 7.2 |  |  |
| CO/N=C(/C1=NOCCO1)c1ccccc1Oc1ncnc(Oc2ccccc2Cl)c1F [Fluoxastrobin] | 0.73 ± 1.3 |  | 45.4 ± 3.9 | 50.3 ± 4.7 | 47.2 ± 5.7 | 0.629 ± 1.1 | 0.277 ± 0.48 |  |  |  |
| ClC1=C(Cl)C2(Cl)C3C4OC4C(Cl)C3C1(Cl)C2(Cl)Cl (configuration not stated) [Heptachlorepoxide] | 1.72 ± 1.8 |  |  | 99.4 ± 13 |  | 2.34 ± 0.82 | 1.89 ± 0.21 |  |  |  |

More lines, main results first:

| chemical recovery by SPE of plasma ([1]; equilibration time (d): 1) [%] | chemical recovery [2, 4] [%] | chemical recovery into PDMS ([3]; equilibration time (d): 1) [%] | chemical recovery into PDMS ([3]; equilibration time (d): 3) [%] | chemical recovery into PDMS ([3]; equilibration time (d): 6) [%] | Structure (SMILES) | chemical recovery by SPE of plasma ([1]; equilibration time (d): 3) [%] | chemical recovery by SPE of plasma ([1]; equilibration time (d): 6) [%] | chemical recovery [2, 5] [%] | chemical recovery [2, 6] [%] | chemical recovery [2, 7] [%] |
| --- | --- | --- | --- | --- | --- | --- | --- | --- | --- | --- |
| 1.42 ± 1.2 | 24.5 ± 5.8 | 15.9 ± 6.2 | 9.35 ± 5.2 | 13.5 ± 8.6 | C#C[C@]1(OC(C)=O)CC[C@H]2[C@@H]3CCC4=CC(=NO)CC[C@@H]4[C@H]3CC[C@@]21CC (mixture of isomers) [Norgestimate] |  |  |  |  |  |
| 17.2 ± 0.9 | 39.6 ± 10 | 0.0493 ± 0.043 | 0.0293 ± 0.027 | 0.0825 ± 0.0051 | CC(=O)N1CCN(c2ccc(OC[C@H]3CO[C@](Cn4ccnc4)(c4ccc(Cl)cc4Cl)O3)cc2)CC1 (racemic) [Ketoconazole] | 12.8 ± 1.7 | 10.5 ± 1.8 |  | 7.76 ± 0.64 | 42.6 ± 2.9 |
| 2.44 ± 4 |  | 0.707 ± 0.49 | 1.17 ± 0.15 | 0.677 ± 0.17 | CC1(C)CC(=O)CC(C)(C)N1 [2,2,6,6-Tetramethyl-4 piperidone] |  | 1.13 ± 0.92 |  |  |  |
|  |  |  | 0.00395 ± 0.0068 |  | O=c1[nH]cc(F)c(=O)[nH]1 [5-Fluorouracil] |  |  |  | 0.502 ± 0.11 | 0.392 ± 0.68 |
|  | 51.1 ± 7.7 | 7.94 ± 0.8 | 12.2 ± 1.3 | 13.1 ± 1.1 | CC(=O)[C@@]1(O)CC[C@H]2[C@@H]3CCC4=CC(=O)CC[C@]4(C)[C@H]3CC[C@@]21C [17alpha-Hydroxyprogesterone] |  |  |  |  |  |
|  | 39.3 ± 5.3 | 42.4 ± 3 | 44 ± 1.3 | 45.4 ± 3.2 | CCC(=O)OCC(=O)[C@@]1(OC(=O)CC)[C@@H](C)C[C@H]2[C@@H]3CCC4=CC(=O)C=C[C@]4(C)[C@@]3(F)[C@@H](O)C[C@@]21C [Betamethasone dipropionate] |  |  |  |  |  |
|  | 2.88 ± 2 | 20.3 ± 6.3 | 23.2 ± 9.8 | 17.8 ± 2.9 | CC1C(C)(C)C2=C(C(=O)CCC2)C1(C)C (configuration not stated) [Cashmeran] |  |  |  |  |  |
|  | 36.1 ± 7.8 |  |  | 36.1 ± 0.56 | CC=CC(=O)N(CC)c1ccccc1C [Crotamiton] |  |  | 56.3 ± 3.9 |  | 37 ± 4.8 |
|  |  | 25.7 ± 3.8 | 3.03 ± 5.2 | 5.33 ± 4.6 | CCCCCCCCn1sc(Cl)c(Cl)c1=O [DCOIT] |  |  |  |  | 27.3 ± 3.7 |
|  | 31.5 ± 6 | 47.1 ± 4.2 | 50.6 ± 5.3 | 48 ± 3.2 | CC(C)OC(=O)C(C)(C)Oc1ccc(C(=O)c2ccc(Cl)cc2)cc1 [Fenofibrate] |  |  |  |  |  |
|  |  | 33.8 ± 6.6 | 34.9 ± 2.3 | 42.6 ± 7 | CC(=O)C1(C)CC2=C(CCCC2(C)C)CC1C (configuration not stated) [ISO E Super] |  |  |  |  | 2.41 ± 2.6 |
